Measured values: patent publication US20200305481A1, “STEVIOL GLYCOSIDE COMPOSITIONS FOR ORAL INGESTION OR USE” (CARGILL, INCORPORATED, priority 2015, published 2020)
“Also recorded” adds a separate entry of the source.

Assays:
[1] = Sensory testing of steviol glycoside samples dissolved in water; type: in vivo; details: for Sensory Comments: about 300 ppm sample in reverse osmosis water, 2-3 mL tasted by two to three experienced tasters; for sweetness in water compared with Reb M in water: in reverse osmosis water, experienced tasters
Experimental: Steviol glycoside samples (SG201, SG203, and SG204) were isolated and purified from fermentation broth, purified Reb A and B are of leaf origin, and Reb M is chemically synthesized. All samples were dissolved in reverse osmosis water at the concentrations indicated. Approximately 2-3 milliliters of each solution was tasted and sensory evaluations conducted by two to three experienced tasters.

[2] = cited from earlier work; for taste properties in words: background statements, literature sensory evaluation
[3] = water at room temperature / beverage formulations; cited from earlier work

C=C1C[C@@]23CC[C@H]4[C@@](C)(CCC[C@@]4(C)C(=O)O[C@@H]4O[C@H](CO)[C@@H](O)[C@H](O)[C@H]4O)[C@@H]2CC[C@]1(O[C@@H]1O[C@H](CO)[C@@H](O)[C@H](O[C@@H]2O[C@H](CO)[C@@H](O)[C@H](O)[C@H]2O)[C@H]1O[C@@H]1O[C@H](CO)[C@@H](O)[C@H](O)[C@H]1O)C3 [Reb A, rebaudioside A]
Sensory Comments [1]: some sweet, bitter | taste properties in words [2]: off-taste issues

C=C1C[C@@]23CC[C@H]4[C@@](C)(CCC[C@@]4(C)C(=O)O[C@@H]4O[C@H](CO)[C@@H](O)[C@H](O)[C@H]4O[C@@H]4O[C@H](CO)[C@@H](O)[C@H](O)[C@H]4O)[C@@H]2CC[C@]1(O[C@@H]1O[C@H](CO)[C@@H](O)[C@H](O[C@@H]2O[C@H](CO)[C@@H](O)[C@H](O)[C@H]2O)[C@H]1O[C@@H]1O[C@H](CO)[C@@H](O)[C@H](O)[C@H]1O)C3 [Reb D, rebaudioside D]
aqueous solubility in words [3]: low solubility in water at room temperature | Sensory Comments [1]: less bitter; also recorded: better sweetness, | taste properties in words [2]: slow onset of sweetness and was very clean | times sweeter than sucrose ([2]; relative to sucrose (sugar)): 200-220 times

C=C1C[C@@]23CC[C@H]4[C@@](C)(CCC[C@@]4(C)C(=O)O[C@@H]4O[C@H](CO)[C@@H](O)[C@H](O[C@@H]5O[C@H](CO)[C@@H](O)[C@H](O)[C@H]5O)[C@H]4O[C@@H]4O[C@H](CO)[C@@H](O)[C@H](O)[C@H]4O)[C@@H]2CC[C@]1(O[C@@H]1O[C@H](CO)[C@@H](O)[C@H](O[C@@H]2O[C@H](CO)[C@@H](O)[C@H](O)[C@H]2O)[C@H]1O[C@@H]1O[C@H](CO)[C@@H](O)[C@H](O)[C@H]1O)C3 [Reb M, rebaudioside M]
aqueous solubility in words [3]: poor aqueous solubility and dissolution qualities | Sensory Comments [1]: good sweetness, almost; also recorded: sucrose-like sensation; also recorded: in mouth | taste properties in words [2]: higher sweetness intensity and is more potent than other steviol glycosides

C=C1C[C@@]23CCC4[C@](C)(C(=O)OC5OC(CO)C(O)C(OC6OC(CO)C(O)C(O)C6O)C5OC5OC(CO)C(O)C(O)C5O)CCC[C@@]4(C)[C@@H]2CCC1(OC1OC(CO)C(O)C(O)C1O)C3 (stereo partly drawn) [SG201]
Sensory Comments [1]: not sweet, meaty, brothy,; also recorded: strecker, methional | sweetness in water compared with Reb M in water [1]: do not exhibit sweetness similar to Reb M

C=C1C[C@@]23CCC4[C@](C)(C(=O)OC5OC(CO)C(O)C(O)C5OC5OC(CO)C(O)C(O)C5O)CCC[C@@]4(C)[C@@H]2CCC1(OC1OC(COC2OC(CO)C(O)C(O)C2O)C(O)C(O)C1OC1OC(CO)C(O)C(O)C1O)C3 (stereo partly drawn) [SG203]
Sensory Comments [1]: not sweet, meaty, brothy,; also recorded: strecker, methional | sweetness in water compared with Reb M in water [1]: do not exhibit sweetness similar to Reb M

C=C1C[C@@]23CCC4[C@](C)(C(=O)OC5OC(CO)C(O)C(O)C5OC5OC(CO)C(O)C(O)C5NC(C)=O)CCC[C@@]4(C)[C@@H]2CCC1(OC1OC(CO)C(O)C(OC2OC(CO)C(O)C(O)C2O)C1OC1OC(CO)C(O)C(O)C1O)C3 (stereo partly drawn) [SG204]
Sensory Comments [1]: bitter, not very sweet | sweetness in water compared with Reb M in water [1]: do not exhibit sweetness similar to Reb M
